In paper PMC12374581 (European journal of medicinal chemistry, 2025):
“And” between values parts separate entries of the source, which are not always exact repeats. Equal entries are not always repeated. Where two headings read alike, the source gives them in different places.

Key:
[1] = tested on: B6129/F1 hybrid mice; test: Naloxone pre-treatment antagonist study in hot plate test; type: in vivo, mouse; conditions: naloxone 10 mg/kg pretreatment, agonist 10 mg/kg
[2] = in vitro; conditions: mouse, microsomes
[3] = biological target: κ opioid receptor (OPRK1) (Homo sapiens, UniProt P41145); test: cell-based; conditions: for Emax: read-out: KOR cAMP Emax ± SEM (%)
Chain of κ opioid receptor (OPRK1) (P41145 whole entry): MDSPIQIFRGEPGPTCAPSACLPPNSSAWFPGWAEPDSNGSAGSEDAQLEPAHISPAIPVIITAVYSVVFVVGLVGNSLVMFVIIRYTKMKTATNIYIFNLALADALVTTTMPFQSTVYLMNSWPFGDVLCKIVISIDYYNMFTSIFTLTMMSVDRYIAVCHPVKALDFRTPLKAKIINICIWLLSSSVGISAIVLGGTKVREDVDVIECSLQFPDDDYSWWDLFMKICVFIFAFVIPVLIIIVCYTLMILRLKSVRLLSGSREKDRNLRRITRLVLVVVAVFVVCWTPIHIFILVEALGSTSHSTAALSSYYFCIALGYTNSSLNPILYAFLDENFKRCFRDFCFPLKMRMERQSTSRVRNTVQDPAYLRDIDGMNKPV

[4] = in vitro; conditions: human, microsomes
[5] = tested on: B6129/F1 hybrid mice; test: Hot plate test; type: in vivo, mouse; conditions: for ED50: Mus musculus, read-out: ED50 (antinociception, hot plate); for in vivo agonist profile (antinociception): hot plate, mice; for in vivo agonist profile (antinociception) / Emax (maximal possible effect at the highest dose, hot plate): i.p.; for Emax (maximal possible effect at the highest dose, hot plate): cumulative doses, B6129/F1 mice, nonlinear regression
[6] = biological target: human δ opioid receptor (OPRD1) (Homo sapiens, UniProt P41143); test: cell-based; type: cell-based; conditions: for Emax: read-out: DOR cAMP Emax ± SEM (%)
Chain of human δ opioid receptor (OPRD1) (P41143 whole entry): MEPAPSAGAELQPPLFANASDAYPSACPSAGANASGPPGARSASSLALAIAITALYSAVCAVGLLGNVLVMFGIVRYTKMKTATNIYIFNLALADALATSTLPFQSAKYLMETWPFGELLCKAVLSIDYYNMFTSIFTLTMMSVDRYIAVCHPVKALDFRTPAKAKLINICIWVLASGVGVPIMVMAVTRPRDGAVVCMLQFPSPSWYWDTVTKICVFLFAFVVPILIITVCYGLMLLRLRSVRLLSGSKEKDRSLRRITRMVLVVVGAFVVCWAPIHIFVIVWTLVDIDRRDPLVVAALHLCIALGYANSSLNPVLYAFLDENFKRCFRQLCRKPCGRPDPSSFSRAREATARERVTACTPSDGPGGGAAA

[7] = biological target: human μ opioid receptor (OPRM1) (Homo sapiens, UniProt P35372); test: cell-based; type: cell-based; conditions: for Emax: OPRM1, read-out: MOR cAMP %Emax ± SEM
Chain of human μ opioid receptor (OPRM1) (P35372 whole entry): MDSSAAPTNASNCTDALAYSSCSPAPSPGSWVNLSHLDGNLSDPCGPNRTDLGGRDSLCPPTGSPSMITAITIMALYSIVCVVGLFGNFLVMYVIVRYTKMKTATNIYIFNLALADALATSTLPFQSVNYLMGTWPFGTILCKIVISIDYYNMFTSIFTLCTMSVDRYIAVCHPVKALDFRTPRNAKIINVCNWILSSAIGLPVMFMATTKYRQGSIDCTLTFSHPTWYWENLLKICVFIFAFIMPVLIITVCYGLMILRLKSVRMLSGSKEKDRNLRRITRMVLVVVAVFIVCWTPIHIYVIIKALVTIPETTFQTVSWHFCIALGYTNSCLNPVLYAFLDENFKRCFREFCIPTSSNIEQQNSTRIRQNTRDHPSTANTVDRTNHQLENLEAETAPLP

[8] = biological target: human μ opioid receptor β-arrestin-2 (Homo sapiens, UniProt P35372); test: cell-based; conditions: for Emax: read-out: β-Arrestin Recruitment %Emax ± SEM
Chain of human μ opioid receptor β-arrestin-2 (P35372 whole entry): as above

[9] = Solubility observed for in vivo dosing
[10] = biological target: nociceptin receptor (OPRL1) (Homo sapiens, UniProt P41146); test: cell-based; type: cell-based; conditions: for Emax: read-out: NOR cAMP Emax ± SEM (%)
Chain of nociceptin receptor (OPRL1) (P41146 whole entry): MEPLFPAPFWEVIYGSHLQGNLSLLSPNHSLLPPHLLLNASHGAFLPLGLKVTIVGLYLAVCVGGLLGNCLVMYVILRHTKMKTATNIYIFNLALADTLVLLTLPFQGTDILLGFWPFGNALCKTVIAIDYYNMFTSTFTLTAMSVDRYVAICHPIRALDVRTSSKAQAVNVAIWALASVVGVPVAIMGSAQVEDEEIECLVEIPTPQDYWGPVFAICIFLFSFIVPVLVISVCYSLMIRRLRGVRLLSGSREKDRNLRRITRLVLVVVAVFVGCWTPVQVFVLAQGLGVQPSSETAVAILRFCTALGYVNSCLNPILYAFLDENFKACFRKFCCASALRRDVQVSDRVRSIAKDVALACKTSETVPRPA

[11] = read-out: β-Arrestin Recruitment EC50

Q: For `Nc1cccc(N2C3CCC2CN(CCCc2ccccc2)C3)c1` [Compound 11, 3-(3-(3-Phenylpropyl)-3,8-diazabicyclo[3.2.1]octan-8-yl)aniline], which “effect of naloxone pretreatment on antinociceptive effects” value [1] is on record?
A: antagonized by naloxone

Q: What about the half-life [2] of the same compound?
A: 3.5 min

Q: And the EC50 [3]?
A: > 10 µM

Q: And the Emax [3]?
A: 0%

Q: What about the half-life [4] of the same compound?
A: 36.5 min

Q: And the ED50 ([5]; ip)?
A: 0.849 mg/kg

Q: What about the “in vivo agonist profile (antinociception)” value [5] of the same compound?
A: partial agonists

Q: And the “Emax (maximal possible effect at the highest dose, hot plate)” value [5]?
A: 43.86 % MPE and 44 % MPE

Q: What about the EC50 [6] of the same compound?
A: 1.6 nM

Q: What about the Emax [6] of the same compound?
A: 71.1 ± 3.6%

Q: And the EC50 [7]?
A: 0.25 nM

Q: What about the Emax [7] of the same compound?
A: 104 ± 2.4%

Q: What about the EC50 [8] of the same compound?
A: > 10 µM

Q: And the Emax [8]?
A: 0%

Q: What about the EC50 [8, 11] of the same compound?
A: > 10 µM

Q: What about the “solubility (in words)” value [9] of the same compound?
A: poorly soluble

Q: What about the EC50 ([10]; NOR cAMP EC50 (nM)) of the same compound?
A: > 10000 nM

Q: What about the EC50 ([10]; NOR cAMP pEC50± SEM) of the same compound?
A: > 10000 nM

Q: What about the Emax [10] of the same compound?
A: 0%

Q: For `C[C@@H](NC(=O)[C@@H](N)Cc1ccc(O)cc1)C(=O)NCC(=O)N(C)[C@@H](Cc1ccccc1)C(=O)NCCO` [DAMGO, reference compound], which Emax [8] is on record?
A: 102.3 ± 0.2%

Q: Which EC50 [7] does the source give for `NC(=O)c1ccc(N2C3CCC2CN(CCCc2ccccc2)C3)cc1` [Compound 15, 4-(3-(3-Phenylpropyl)-3,8-diazabicyclo[3.2.1]octan-8-yl)benzamide] here?
A: > 10000 nM

Q: What about the EC50 ([7]; read-out: MOR cAMP EC50) of the same compound?
A: > 10000 nM

Q: For `NC(=O)c1cc(N2C3CCC2CN(CCCc2ccccc2)C3)ccc1O` [Compound 16, 2-Hydroxy-5-(3-(3-phenylpropyl)-3,8-diazabicyclo[3.2.1]octan-8-yl)benzamide], which half-life [2] is on record?
A: 2.1 min

Q: What about the half-life [4] of the same compound?
A: 13 min

Q: What about the EC50 [6] of the same compound?
A: 16 nM

Q: And the Emax [6]?
A: 34.8 ± 3%

Q: And the EC50 [7]?
A: 4 nM

Q: And the Emax [7]?
A: 60.9 ± 3.9%

Q: What about the EC50 [8] of the same compound?
A: > 10 µM

Q: What about the Emax [8] of the same compound?
A: 0%

Q: And the EC50 [8, 11]?
A: > 10 µM

Q: What about the “agonist activity at NORs (in words)” value [10] of the same compound?
A: no agonist activity

Q: And the EC50 ([10]; NOR cAMP EC50 (nM))?
A: > 10000 nM

Q: What about the EC50 ([10]; NOR cAMP pEC50± SEM) of the same compound?
A: > 10000 nM

Q: What about the Emax [10] of the same compound?
A: 0%

Q: What does the source list for `NC(=O)c1cccc(N2C3CCC2CN(CCCc2ccccc2)C3)c1F` [Compound 19, 2-Fluoro-3-(3-(3-phenylpropyl)-3,8-diazabicyclo[3.2.1]octan-8-yl)benzamide]?
A: EC50 [6]: 13 nM; Emax [6]: 71.4 ± 1.8%; EC50 [7]: 2.5 nM; Emax [7]: 101.2 ± 0.6%; EC50 [8]: > 10 µM; Emax [8]: 0%; EC50 [8, 11]: > 10 µM; EC50 ([10]; NOR cAMP EC50 (nM)): 3.2 nM; EC50 ([10]; NOR cAMP pEC50± SEM): 3.16 nM; Emax [10]: 19.5 ± 3.4%

Q: For Buprenorphine [reference compound], which “ED50 (antinociception, hot plate)” value ([5]; mouse, in vivo, ip) is on record?
A: 0.6441 mg/kg

Q: Which half-life [2] does the source give for `Oc1cc(F)cc(N2C3CCC2CN(CCCc2ccccc2)C3)c1` [Compound 8, 3-Fluoro-5-(3-(3-phenylpropyl)-3,8-diazabicyclo[3.2.1]octan-8-yl)phenol] here?
A: 3.3 min

Q: And the half-life [4]?
A: 26.6 min

Q: And the EC50 [7]?
A: 0.79 nM

Q: And the Emax [7]?
A: 99.9 ± 0.6%

Q: What about the EC50 [8] of the same compound?
A: > 10 µM

Q: And the Emax [8]?
A: 0%

Q: What about the EC50 [8, 11] of the same compound?
A: > 10 µM

Q: With `O=[N+]([O-])c1cccc(N2C3CCC2CN(CCCc2ccccc2)C3)c1` [Compound 10, 8-(3-Nitrophenyl)-3-(3-phenylpropyl)-3,8-diazabicyclo[3.2.1]octane] as the compound, how does the EC50 [7] read?
A: 10 nM

Q: What about the Emax [7] of the same compound?
A: 100.6 ± 0.4%

Q: What about the EC50 [8] of the same compound?
A: > 10 µM

Q: What about the Emax [8] of the same compound?
A: 0%

Q: And the EC50 [8, 11]?
A: > 10 µM

Q: What does the source list for `NC(=O)c1cc(N2C3CCC2CN(CCCc2ccccc2)C3)ccc1F` [Compound 18, 2-Fluoro-5-(3-(3-phenylpropyl)-3,8-diazabicyclo[3.2.1]octan-8-yl)benzamide]?
A: EC50 [6]: 160 nM; Emax [6]: 56.2 ± 6.2%; EC50 [7]: 10 nM; Emax [7]: 100.2 ± 0.5%; EC50 [8]: > 10 µM; EC50 [8, 11]: > 10 µM; EC50 ([10]; NOR cAMP EC50 (nM)): 25 nM; EC50 ([10]; NOR cAMP pEC50± SEM): 25.1 nM; Emax [10]: 41.9 ± 19.3%

Q: What does the source list for `O=S(=O)(Nc1cccc(N2C3CCC2CN(CCCc2ccccc2)C3)c1)C1CC1` [Compound 12, N-(3-(3-(3-Phenylpropyl)-3,8-diazabicyclo[3.2.1]octan-8-yl)phenyl)cyclopropane-sulfonamide]?
A: effect of naloxone pretreatment on antinociceptive effects [1]: antagonized by naloxone; half-life [2]: 6.4 min; EC50 [3]: > 10 µM; Emax [3]: 0%; half-life [4]: 35.6 min; ED50 ([5]; ip): 2.8 mg/kg; in vivo agonist profile (antinociception) [5]: partial agonists; Emax (maximal possible effect at the highest dose, hot plate) [5]: 33.45 % MPE and 33 % MPE; EC50 [6]: 1.6 nM; Emax [6]: 71 ± 4.7%; EC50 [7]: 0.5 nM; Emax [7]: 98.8 ± 0.4%; EC50 [8]: 0.025 µM; Emax [8]: 4.3 ± 0.2%; solubility (in words) [9]: poorly soluble; EC50 ([10]; NOR cAMP EC50 (nM)): > 10000 nM; EC50 ([10]; NOR cAMP pEC50± SEM): > 10000 nM; Emax [10]: 0%

Q: What does the source list for `c1ccc(CCCN2CC3CCC(C2)N3c2cccc(-c3ncco3)c2)cc1` [Compound 20, 2-(3-(3-(3-Phenylpropyl)-3,8-diazabicyclo[3.2.1]octan-8-yl)phenyl)oxazole]?
A: EC50 [7]: 320 nM; Emax [7]: 100 ± 0.1%

Q: For `CC(C)(O)c1cccc(N2C3CCC2CN(CCCc2ccccc2)C3)c1` [Compound 4, 2-(3-(3-(3-Phenylpropyl)-3,8-diazabicyclo[3.2.1]octan-8-yl)phenyl)propan-2-ol], which EC50 [7] is on record?
A: 250 nM

Q: What about the “fold decrease in MOR cAMP activity compared to 3” value [7] of the same compound?
A: 12 fold

Q: What about the Emax [7] of the same compound?
A: 107.8 ± 0.9%

Q: For `OCc1cccc(N2C3CCC2CN(CCCc2ccccc2)C3)c1` [Compound 3, (3-(3-(3-Phenylpropyl)-3,8-diazabicyclo[3.2.1]octan-8-yl)phenyl)methanol], which EC50 [7] is on record?
A: 20 nM

Q: And the Emax [7]?
A: 102 ± 1.1%

Q: Which results are given for `FC(F)c1cccc(N2C3CCC2CN(CCCc2ccccc2)C3)c1` [Compound 9, 8-(3-(Difluoromethyl)phenyl)-3-(3-phenylpropyl)-3,8-diazabicyclo[3.2.1]octane]?
A: EC50 [7]: 13 nM; Emax [7]: 102.6 ± 1%; EC50 [8]: > 10 µM; EC50 [8, 11]: > 10 µM

Q: With `Oc1ccc(N2C3CCC2CN(CCCc2ccccc2)C3)cc1` [Compound 1, 4-(3-(3-Phenylpropyl)-3,8-diazabicyclo[3.2.1]octan-8-yl)phenol] as the compound, how does the EC50 [7] read?
A: 250 nM

Q: What about the “fold reduction in MOR cAMP potency compared to atoxifent” value [7] of the same compound?
A: 700 fold

Q: What about the Emax [7] of the same compound?
A: 58.7 ± 5.8%

Q: And the EC50 [8]?
A: > 10 µM

Q: What about the Emax [8] of the same compound?
A: 0%

Q: And the EC50 [8, 11]?
A: > 10 µM

Q: For `Oc1cc(Cl)cc(N2C3CCC2CN(CCCc2ccccc2)C3)c1` [Compound 6, 3-Chloro-5-(3-(3-phenylpropyl)-3,8-diazabicyclo[3.2.1]octan-8-yl)phenol], which EC50 [7] is on record?
A: 20 nM

Q: What about the Emax [7] of the same compound?
A: 99.6 ± 1.1%

Q: Which “effect of naloxone pretreatment on antinociceptive effects” value [1] does the source give for `NC(=O)c1cccc(N2C3CCC2CN(CCCc2ccccc2)C3)c1` [Compound 13, 3-(3-(3-Phenylpropyl)-3,8-diazabicyclo[3.2.1]octan-8-yl)benzamide] here?
A: antagonized by naloxone

Q: What about the half-life [2] of the same compound?
A: 14.2 min

Q: And the “KOR cAMP pEC50± SEM” value [3]?
A: < 5.0

Q: What about the EC50 ([3]; read-out: KOR cAMP EC50) of the same compound?
A: > 10 µM

Q: What about the Emax [3] of the same compound?
A: 0%

Q: What about the half-life [4] of the same compound?
A: 92.7 min

Q: What about the ED50 ([5]; ip) of the same compound?
A: 0.658 mg/kg

Q: What about the “in vivo agonist profile (antinociception)” value [5] of the same compound?
A: partial agonists

Q: And the “Emax (maximal possible effect at the highest dose, hot plate)” value [5]?
A: 31.91 % MPE and 32 % MPE

Q: What about the “DOR cAMP pEC50±SEM” value [6] of the same compound?
A: 8.0 and 8.0 ± 0.2

Q: What about the EC50 ([6]; read-out: DOR cAMP EC50) of the same compound?
A: 10 nM

Q: What about the Emax [6] of the same compound?
A: 81.3 ± 3%

Q: And the “MOR cAMP pEC50±SEM” value [7]?
A: 9.6 ± 0.1

Q: What about the Emax [7] of the same compound?
A: 101.8 ± 0.3%

Q: What about the EC50 ([7]; read-out: MOR cAMP EC50) of the same compound?
A: 0.25 nM

Q: And the “β-Arrestin Recruitment pEC50 ± SEM” value [8]?
A: 7.8 ± 0.1

Q: What about the Emax [8] of the same compound?
A: 7.5 ± 1.3%

Q: And the EC50 [8, 11]?
A: 0.016 µM

Q: And the “solubility (in words)” value [9]?
A: readily soluble

Q: What about the “NOR cAMP pEC50± SEM” value [10] of the same compound?
A: < 5.0

Q: And the EC50 ([10]; read-out: NOR cAMP EC50)?
A: > 10000 nM

Q: What about the Emax [10] of the same compound?
A: 0%

Q: With `OC1(c2cccc(N3C4CCC3CN(CCCc3ccccc3)C4)c2)COC1` [Compound 5, 3-(3-(3-(3-Phenylpropyl)-3,8-diazabicyclo[3.2.1]octan-8-yl)phenyl)oxetan-3-ol] as the compound, how does the EC50 [7] read?
A: 63 nM

Q: What about the Emax [7] of the same compound?
A: 102.6 ± 0.5%

Q: With `NC(=O)c1ccccc1N1C2CCC1CN(CCCc1ccccc1)C2` [Compound 14, 2-(3-(3-Phenylpropyl)-3,8-diazabicyclo[3.2.1]octan-8-yl)benzamide] as the compound, how does the EC50 [7] read?
A: 3.2 nM

Q: And the “fold decrease in MOR cAMP activity compared to 13” value [7]?
A: ~14 fold

Q: And the Emax [7]?
A: 101.6 ± 0.6%

Q: What about the EC50 [8] of the same compound?
A: 0.7 µM

Q: And the Emax [8]?
A: 26.5 ± 2.4%
